Measured values reported in patent US20240368163A1, “COMPOUNDS AND METHODS FOR MODULATING SPLICING” (REMIX THERAPEUTICS INC., priority 2021, published 2024).

How the values were obtained:
Type in all cases: cell-based, human
[1] = test system: HTT; test: Splicing RT-qPCR assay, HTT mRNA canonical junction (CJ) and alternative junction (AJ); conditions: Homo sapiens, gene panel, CJ qPCR, protocol of Example 142; read-out: HTT IC50 (decrease in CJ mRNA levels)
Outline: (§1)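 Splice switching is measured in A673 or K562 cells after 24 h compound exposure (maximum 10 uM, 3-fold steps). Canonical and alternative junction mRNA levels are quantified by RT-qPCR relative to housekeeper and DMSO.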

[2] = test system: MYB; test: Splicing RT-qPCR assay, MYB mRNA canonical junction (CJ) and alternative junction (AJ); conditions: Homo sapiens, gene panel, CJ qPCR, protocol of Example 142; read-out: MYB IC50 (decrease in CJ mRNA levels)
Outline: as §1

[3] = test system: SMN2; test: Splicing RT-qPCR panel, SMN2 canonical junction (CJ) mRNA; conditions: Homo sapiens, gene panel, CJ qPCR, protocol of Example 142; read-out: SMN2 IC50 (decrease in CJ mRNA levels)
Outline: as §1

[4] = test system: Target C; test: Splicing RT-qPCR panel, Target C canonical junction (CJ) mRNA; conditions: Homo sapiens, gene panel, CJ qPCR, protocol of Example 142; read-out: Target C IC50 (decrease in CJ mRNA levels)
Outline: as §1

[5] = test system: MYB; test: HiBiT protein abundance assay, MYB; conditions: Homo sapiens, K562, 24 h, Table 13B, modified K562 cells
Outline: (§2)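 Protein abundance measured by Nano-Glo HiBiT lytic luminescence after 24 h compound exposure of modified K562 lines, 10000 cells/well, top final dose 10 μM in 3-fold steps. Four-parameter fit of control-normalised response gives concentration reducing abundance to 50% of untreated.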

[6] = test system: HTT; test: HiBiT protein abundance assay, HTT; conditions: Homo sapiens, K562, 24 h, Table 13B, modified K562 cells
Outline: as §2

[7] = test system: Target C; test: HiBiT protein abundance assay, Target C; conditions: Homo sapiens, K562, 24 h, Table 13B, modified K562 cells
Outline: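 Target protein levels in engineered HiBiT-tagged cells were read by lytic luminescence after 24 h compound exposure (10000 cells/well, 10 μM top final, 3-fold steps, ≤0.25% DMSO). Unmodified K562 served as baseline; four-parameter regression gave concentration reducing abundance to 50%.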

COc1cc(-c2ccc(-c3ccc(N(C)[C@@H]4C[C@H]5CC[C@@H](C4)N5)nn3)nc2OC)cnn1 [Compound 959]
IC50 [1]: < 100 nM
IC50 [2]: 100 to 1000 nM
IC50 [3]: < 100 nM
IC50 [4]: 100 to 1000 nM
IC50 [5]: 100 to 1000 nM
IC50 [6]: < 100 nM
IC50 [7]: 100 to 1000 nM

COc1nc(-c2ccc(N(C)[C@@H]3C[C@H]4CC[C@@H](C3)N4)nn2)ccc1-c1cnnc(C)c1 [Compound 960]
IC50 [1]: 1000 to 10000 nM
IC50 [2]: 1000 to 10000 nM
IC50 [3]: 100 to 1000 nM
IC50 [4]: 1000 to 10000 nM
IC50 [5]: 1000 to 10000 nM
IC50 [6]: 1000 to 10000 nM
IC50 [7]: > 10000 nM

COc1nc(-c2ccc(O[C@@H]3C[C@H]4CC[C@@H](C3)N4)nn2)ccc1-c1ccnc(C)c1 [Compound 963]
IC50 [1]: 1000 to 10000 nM
IC50 [2]: 1000 to 10000 nM
IC50 [3]: 1000 to 10000 nM
IC50 [4]: > 10000 nM
IC50 [5]: 1000 to 10000 nM
IC50 [6]: 1000 to 10000 nM
IC50 [7]: > 10000 nM

COc1nc(-c2ccc(OC3CC4CC(F)(F)C(C3)N4)nn2)ccc1-c1ccnc(C)c1 (stereo not shown) [Compound 964]
IC50 [1]: > 10000 nM
IC50 [2]: > 10000 nM
IC50 [3]: > 10000 nM
IC50 [4]: > 10000 nM
IC50 [5]: > 10000 nM
IC50 [6]: > 10000 nM
IC50 [7]: > 10000 nM

CC1(C)CC(Oc2ccc(-c3ccc(-c4cn[nH]c4)c(OC4CC4)n3)nn2)CC(C)(C)N1 [Compound 968]
IC50 [1]: 100 to 1000 nM
IC50 [2]: 1000 to 10000 nM
IC50 [3]: 100 to 1000 nM
IC50 [4]: 1000 to 10000 nM
IC50 [5]: 1000 to 10000 nM
IC50 [6]: 100 to 1000 nM
IC50 [7]: 1000 to 10000 nM

CCOc1nc(-c2ccc(OC3CC4CC(F)(F)C(C3)N4)nn2)ccc1-c1cn[nH]c1 (stereo not shown) [Compound 970]
IC50 [1]: > 10000 nM
IC50 [2]: > 10000 nM
IC50 [3]: 1000 to 10000 nM
IC50 [4]: > 10000 nM
IC50 [5]: > 10000 nM
IC50 [6]: > 10000 nM
IC50 [7]: > 10000 nM

COc1nc(-c2ccc(OC3CC4CC(F)(F)C(C3)N4)nn2)ccc1C1C=CC(F)=C1 (stereo not shown) [Compound 971]
IC50 [1]: 1000 to 10000 nM
IC50 [2]: 1000 to 10000 nM
IC50 [3]: 1000 to 10000 nM
IC50 [4]: 1000 to 10000 nM
IC50 [5]: 1000 to 10000 nM
IC50 [6]: 1000 to 10000 nM
IC50 [7]: 1000 to 10000 nM

COc1cc(-c2ccc(N3CCC(NC(C)(C)C)C3)nn2)ncc1-n1cccn1 (stereo not shown) [Compound 972]
IC50 [1]: 100 to 1000 nM
IC50 [2]: 1000 to 10000 nM
IC50 [3]: 100 to 1000 nM
IC50 [4]: 1000 to 10000 nM
IC50 [5]: 1000 to 10000 nM
IC50 [6]: 100 to 1000 nM
IC50 [7]: 1000 to 10000 nM

COc1nc(-c2ccc(N(C)[C@@H]3C[C@H]4CC[C@@H](C3)N4)cn2)ccc1-c1cn[nH]c1 [Compound 978]
IC50 [1]: > 10000 nM
IC50 [2]: > 10000 nM
IC50 [3]: > 10000 nM
IC50 [4]: > 10000 nM
IC50 [5]: 1000 to 10000 nM
IC50 [6]: 1000 to 10000 nM
IC50 [7]: > 10000 nM

COc1nc(-c2ccc(N(C)[C@@H]3C[C@H]4CC[C@@H](C3)N4)nc2)ccc1-c1cn[nH]c1 [Compound 979]
IC50 [1]: < 100 nM
IC50 [2]: 100 to 1000 nM
IC50 [3]: < 100 nM
IC50 [4]: 100 to 1000 nM
IC50 [5]: 100 to 1000 nM
IC50 [6]: < 100 nM
IC50 [7]: < 100 nM

COc1nc(-c2cnc(N(C)[C@@H]3C[C@H]4CC[C@@H](C3)N4)cn2)ccc1-c1cn[nH]c1 [Compound 980]
IC50 [1]: 1000 to 10000 nM
IC50 [2]: 1000 to 10000 nM
IC50 [3]: > 10000 nM
IC50 [4]: 1000 to 10000 nM
IC50 [5]: 1000 to 10000 nM
IC50 [6]: 1000 to 10000 nM
IC50 [7]: 1000 to 10000 nM

COc1nc(-c2cnc(N(C)[C@@H]3C[C@H]4CC[C@@H](C3)N4)nc2)ccc1-c1cn[nH]c1 [Compound 981]
IC50 [1]: 100 to 1000 nM
IC50 [2]: 1000 to 10000 nM
IC50 [3]: 100 to 1000 nM
IC50 [4]: 1000 to 10000 nM
IC50 [5]: 100 to 1000 nM
IC50 [6]: < 100 nM
IC50 [7]: 100 to 1000 nM

COc1nc(-c2ccc(NC3CCNCC3)nc2)ccc1-c1cnn(C)c1 [Compound 986]
IC50 [1]: 1000 to 10000 nM
IC50 [2]: 1000 to 10000 nM
IC50 [3]: 100 to 1000 nM
IC50 [4]: 1000 to 10000 nM
IC50 [5]: 1000 to 10000 nM
IC50 [6]: 100 to 1000 nM
IC50 [7]: 1000 to 10000 nM

COc1nc(-c2ccc(NC3CCNCC3)nc2)ccc1-n1cccn1 [Compound 987]
IC50 [1]: > 10000 nM
IC50 [2]: > 10000 nM
IC50 [3]: 1000 to 10000 nM
IC50 [4]: > 10000 nM
IC50 [5]: 1000 to 10000 nM
IC50 [6]: > 10000 nM
IC50 [7]: 1000 to 10000 nM

COc1nc(-c2ccc(NC3CCNCC3)nc2)ccc1-c1cnn(C)n1 [Compound 988]
IC50 [1]: 1000 to 10000 nM
IC50 [2]: > 10000 nM
IC50 [3]: 100 to 1000 nM
IC50 [4]: > 10000 nM
IC50 [5]: 1000 to 10000 nM
IC50 [6]: 1000 to 10000 nM
IC50 [7]: 1000 to 10000 nM

COc1nc(-c2ccc(OC3CC(C)(C)NC(C)(C)C3)nc2)ccc1-c1cn[nH]c1 [Compound 989]
IC50 [1]: 100 to 1000 nM
IC50 [2]: 1000 to 10000 nM
IC50 [3]: 100 to 1000 nM
IC50 [4]: 1000 to 10000 nM
IC50 [5]: 1000 to 10000 nM
IC50 [6]: 100 to 1000 nM
IC50 [7]: 100 to 1000 nM
